From the supplement of paper PMC9912026

Tested on: A375
Test: pERK immunofluorescence, normalised; higher = more ERK phosphorylation
Details: vemurafenib 0 µM, EGF 100 ng/mL, drug treatment time 24 h
Procedure: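 A375 or A375 CRISPRa-EGFR (A375_Cra_F7_5/13) cells were adapted for 24 h to a cobimetinib dose series, with or without 1 uM vemurafenib, then stimulated with EGF (100 ng/mL) or mock medium and fixed at the indicated times. pERK was measured by immunofluorescence as the population mean normalised to baseline, with the SD of technical replicates (n=2).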

O=C(c1ccc(F)c(F)c1Nc1ccc(I)cc1F)N1CC(O)([C@@H]2CCCCN2)C1 [cobimetinib]
pERK immunofluorescence
Details | cobimetinib 31.62 pM | cobimetinib 0.0001 µM | cobimetinib 0.000316228 µM | cobimetinib 0.001 µM | cobimetinib 0.003162278 µM | cobimetinib 0.01 µM | cobimetinib 0.031622777 µM | cobimetinib 0.1 µM | cobimetinib 0.316227766 µM | cobimetinib 1 µM
time after EGF/mock 0.083 h | 1.19 | 1.2 | 1.133 | 1.18 | 1.39 | 1.4 | 1.37 | 1.04 | 0.268 | 0.134
time after EGF/mock 0.5 h | 1.03 | 1.03 | 0.9538 | 0.887 | 0.782 | 0.594 | 0.411 | 0.333 | 0.336 | 0.144
time after EGF/mock 2 h | 0.959 | 0.965 | 0.891 | 0.782 | 0.4241 | 0.176 | 0.136 | 0.1271 | 0.1234 | 0.12285
time after EGF/mock 8 h | 0.946 | 0.9729 | 0.909 | 0.786 | 0.487 | 0.168 | 0.124 | 0.114 | 0.1065 | 0.1039
time after EGF/mock 24 h | 0.8607 | 0.897 | 0.854 | 0.773 | 0.518 | 0.128 | 0.1071 | 0.1048 | 0.104 | 0.0978
